US12186392B2, “Combination therapy of an anti CD20 antibody with a BTK inhibitor” (Ono Pharmaceutical Co., Ltd., priority 2013, dated 2025)
Where a name gives a salt, the structure may show the parent alone.

Experiments:
TMD8 (ABC-DLBCL) cells [1] = assay: Antitumor activity study of compound A in combination with GA101/RTX in TMD8 xenograft model (Example 2); assay type: in vivo, SCID mice; details: for Tumor growth inhibition (TGI): vs vehicle group, GA101 3 mg/kg i.v. Q7Dx4, RTX 3 mg/kg i.v. Q7Dx4, compound A 10 mg/kg p.o. twice daily
Description: Mice were xenografted on DO. […] Mice received one IV injection of Rituximab (at 3 mg/kg) or one IV injection of GA101 (at 3 mg/kg) once a week (D14 (Day 0), 21 (Day 7), 28 (Day 14) and 35 (Day 21): Q7D×4). Tumor volumes were monitored and recorded twice a week.
Compound A was per os (PO) administered to mice twice daily by oral gavage via a disposable oral feeding needle (Fuchigami Kikai Co.) at 10 ml/kg. GA101/Rituximab were intravenously (IV) injected at 10 ml/kg in the caudal vein of mice. For all treatments, the administration volumes were adapted according to the closest measure of individual body weight for each mouse. The compound A b.i.d. group and the vehicle group received compound A and 0.5% MC, respectively, in the morning and afternoon at an interval of 8 h or more.
(§1) Female C.B-17/lcr-SCID/SCIDJcl mice (Clea Japan Inc., age at initiation of experiment: 6 weeks; hereinafter referred to as “Scid mice”) were used. The mice were kept in metal mouse cages, 3 to 5 to a cage, and underwent about 1 week acclimation period prior to being subjected to the experiment. While at our facility, the animals were allowed solid feed, CRF-1 (Oriental Yeast Co., Ltd.) and tap water (from an automatic dispenser) ad libitum. Excrement was processed with an automated cleaning system. The general condition of the animals was observed upon receipt and at the completion of acclimation. Animals having no problems with general condition were used in the experiment.
(§2) TMD8 was established from cells of a patient with diffuse large B-cell lymphoma (Tohda S et al., Leuk Res., 2006, 30: 1385-90). RPMI Medium 1640 (Invitrogen Corporation, hereinafter referred to as “RPMI”) containing 10 vol % inactivated FBS and 1 vol % Penicillin-Streptomycin liquid (Invitrogen Corporation) was prepared and used as medium. The medium was stored at 5° C. (allowable range: 1° C. to 9° C.). The cell suspension of 4×106 to 2.0×10^7 cells per dish was inoculated in a 150 mm dish containing the medium. The plates were incubated at 37° C., 5% CO2, 95% air.
(§3) At Day 0, the pellet was suspended in RPMI previously cooled on ice to obtain a 2×10^8 cells/mL cell suspension. The RPMI cell suspension and equal volume of BD Matrigel GFR (BD Biosciences) were combined to prepare a 1×10^8 cells/mL cell suspension. This was used as the cell suspension for implantation. Then, 0.1 mL of cell suspension was subcutaneously injected in the right flank of the mice under pentobarbital anesthesia, using a 25-gauge needle (Terumo Corporation).
(§4) The long axis and short axis of the tumors were measured with electronic calipers (Mitutoyo Corporation) every 2 or 4 days from TMD8 implantation to the final assessment day.
(§5) The primary endpoint was tumor volume on the final assessment day. In addition, the tumor growth inhibition rate (TGI, %) in the treatment groups versus the vehicle group was calculated. Temporal change in tumor volume and body weight from Day 0 were used as secondary endpoints. Tumor volume was calculated with the following formula. Tumor volume=Long axis of tumor×(short axis of tumor)2×0.5
The experiment in Example 2 was performed according to the method described in Example 1 except for the following “substance vehicle” and “treatment schedule”.
(§6) Compound A was weighed out and suspended in a 0.5 w/v % methyl cellulose 400 cP solution (Wako Pure Chemical Industries, Ltd., hereinafter referred to as “0.5% MC”), using a mortar and pestle, to obtain a 1 mg/mL (10 mg/kg) suspension. The suspension was used within 7 days of preparation.
The stock solutions of both GA101 (25 mg/mL) and Rituximab (10 mg/mL) were kept at 4° C. Before administration to mice, the stock solutions were diluted in NaCl 0.9% at 0.3 mg/mL (3 mg/kg) for this study.
When the mean tumor volume reached 400 to 450 mm^3 mice were randomized in groups of 6 according to their individual tumor volumes and treatment was initiated.

TMD8 (ABC-DLBCL) cells [2] = assay: Antitumor activity study of compound A or compound B (in diet) in combination with RTX in TMD8 xenograft model (Example 3); assay type: in vivo, SCID mice; details: for Tumor growth inhibition (TGI): vs vehicle group, RTX 3 mg/kg i.v. Q7Dx3, compound A 0.0037% in diet (6 mg/kg/day), compound B 0.012% in diet (20 mg/kg/day)
Description: Mice were xenografted on DO. […] Mice received one IV injection of Rituximab (at 3 mg/kg) once a week (D14 (Day 0), 21 (Day 7) and 28 (Day 14): Q7D×3). Tumor volumes were monitored and recorded at Day 3, Day 7, Day 11, Day 14, Day 18 and Day 21.
as §1, §2, §3, §4, §5
The experiment in Example 3 was performed according to the method described in Example 1 except for the following “substance vehicle”, “route of drug administration” and “treatment schedule”
The comparative substance, ibrutinib (hereinafter referred to as “compound B”), was stored in sealed containers at ambient temperature, protected from light.
The dose of compound A or compound B corresponds to a daily intake of 6 or 20 mg/kg of body weight.
Treatment groups: Mice fed the same diet containing compound A or compound B after randomization. Rituximab was administered intravenously at a 3 mg/kg once weekly.
Tumor diameter was measured and tumor volume was calculated every 3 or 4 days after group assignment.

[3] = Stability and uniformity of compound A suspension in 0.5% methyl cellulose; assay type: physicochemical; details: 1 mg/mL suspension in 0.5% MC; 7 days under refrigeration, protected from light, and a further 24 hours at ambient temperature exposed to indoor lighting
Description: Compound A was weighed out and suspended in a 0.5 w/v % methyl cellulose 400 cP solution (Wako Pure Chemical Industries, Ltd., hereinafter referred to as “0.5% MC”), using a mortar and pestle, to obtain a 1 mg/mL suspension. The suspension was used within 7 days of preparation.
as §6

[4] = test system: NK cell-mediated cytotoxicity; details: Kohrt H E et al., Blood 123, 1957-1960, 2014; cited from earlier work
TMD8 (ABC-DLBCL) cells [5] = assay: Antitumor efficacy study of compound A in combination with GA101 in SCID mice subcutaneously xenografted with TMD8 cells (Example 1); assay type: in vivo; details: GA101 1 and 3 mg/kg i.v. Q7Dx4
Description: Mice were xenografted on DO. Mice received one PO administration of vehicle and compound A at 10 mg/kg twice every day (Q0.5D×24) alone or in combination with one IV injection of GA101 at 1 and 3 mg/kg once a week (Q7D×4). Mice received one IV injection of Rituximab (at 3 mg/kg) or one IV injection of GA101 (at 1 and 3 mg/kg) once a week (D14 (Day 0), 21 (Day 7), 28 (Day 14) and D35 (Day 21): Q7D×4). Tumor volumes were monitored and recorded twice a week.
Antitumor efficacy study of BTK inhibitor in combination with anti-CD20 Abs in SCID mice subcutaneously xenografted with TMD8 (ABC-DLBCL) cells
The test substance, 6-amino-9-[(3R)-1-(2-butynoyl)-3-pyrrolidinyl]-7-(4-phenoxyphenyl)-7,9-dihydro-8H-purin-8-one hydrochloride (hereinafter referred to as “compound A”), was stored in sealed containers at ambient temperature, protected from light.
Compound A was weighed out and suspended in a 0.5 w/v % methyl cellulose 400 cP solution (Wako Pure Chemical Industries, Ltd., hereinafter referred to as “0.5% MC”), using a mortar and pestle, to obtain a 1 mg/mL suspension. The suspension was used within 7 days of preparation. […]
TMD8 was established from cells of a patient with diffuse large B-cell lymphoma (Tohda S et al., Leuk Res., 2006, 30: 1385-90). […] Cells were counted in a hemocytometer and their viability was at least 90% the day of cells injection. […]

| Compound | Tumor growth inhibition (TGI) (TMD8 (ABC-DLBCL) cells [1]; day 0) [%] | Tumor growth inhibition (TGI) (TMD8 (ABC-DLBCL) cells [1]; day 4) [%] | Tumor growth inhibition (TGI) (TMD8 (ABC-DLBCL) cells [1]; day 7) [%] | Tumor growth inhibition (TGI) (TMD8 (ABC-DLBCL) cells [1]; day 11) [%] | Tumor growth inhibition (TGI) (TMD8 (ABC-DLBCL) cells [1]; day 14) [%] | Tumor growth inhibition (TGI) (TMD8 (ABC-DLBCL) cells [1]; day 18) [%] | Tumor growth inhibition (TGI) (TMD8 (ABC-DLBCL) cells [1]; day 21) [%] | Statistical significance observed after Day (TMD8 (ABC-DLBCL) cells [1]; monotherapy, GA101 or RTX 3 mg/kg i.v., compound A 10 mg/kg p.o.) [days] | Antitumor activity compared with the compound B arm (TMD8 (ABC-DLBCL) cells [2]; compound A 0.0037% vs compound B 0.012% in diet, alone or with RTX 3 mg/kg) | Tumor growth inhibition (TGI) (TMD8 (ABC-DLBCL) cells [2]; day 0) [%] | Tumor growth inhibition (TGI) (TMD8 (ABC-DLBCL) cells [2]; day 3) [%] | Tumor growth inhibition (TGI) (TMD8 (ABC-DLBCL) cells [2]; day 7) [%] | Tumor growth inhibition (TGI) (TMD8 (ABC-DLBCL) cells [2]; day 11) [%] | Tumor growth inhibition (TGI) (TMD8 (ABC-DLBCL) cells [2]; day 14) [%] | Tumor growth inhibition (TGI) (TMD8 (ABC-DLBCL) cells [2]; day 18) [%] | Tumor growth inhibition (TGI) (TMD8 (ABC-DLBCL) cells [2]; day 21) [%] | Stability and uniformity of suspension [3] | Statistical significance observed after Day (TMD8 (ABC-DLBCL) cells [2]; monotherapy, RTX 3 mg/kg i.v., compound A 0.0037%, compound B 0.012% in diet) [days] | Effect on RTX-dependent NK cell-mediated cytotoxicity [4] | Antitumoral effect (tumour volume curves, FIGS. 1A-1B) (TMD8 (ABC-DLBCL) cells [5]) |
| --- | --- | --- | --- | --- | --- | --- | --- | --- | --- | --- | --- | --- | --- | --- | --- | --- | --- | --- | --- | --- |
| CC#CC(=O)N1CC[C@@H](n2c(=O)n(-c3ccc(Oc4ccccc4)cc3)c3c(N)ncnc32)C1 [compound A, 6-amino-9-[(3R)-1-(2-butynoyl)-3-pyrrolidinyl]-7-(4-phenoxyphenyl)-7,9-dihydro-8H-purin-8-one hydrochloride] | 0.0 | 13.7 | 17.6 | 34.0 | 45.8 | 46.4 | 62.6 | > 11 | comparable to compound B (0.012%) | 0.0 | 12.7 | 42.8 | 47.55 | 51.1 | 61.0 | 56.1 | stable and uniform | – | – | – |
| C=CC(=O)N1CCC[C@@H](n2nc(-c3ccc(Oc4ccccc4)cc3)c3c(N)ncnc32)C1 [compound B, ibrutinib] | – | – | – | – | – | – | – | – | – | 0.4 | 3.2 | 19.1 | 34.91 | 40.2 | 39.2 | 47.1 | – | > 11 | antagonizes RTX-dependent NK cell-mediated cytotoxicity | – |
| GA101: obinutuzumab, afucosylated glyco-engineered humanized B-Ly1 type II anti-CD20 antibody | 1.7 | 30.9 | 45.0 | 53.3 | 63.3 | 72.2 | 77.9 | – | – | – | – | – | – | – | – | – | – | – | – | showed an antitumoral effect |
